Legend:
Assay in all cases: relative viability (nuclei count vs DMSO), 5 days (fraction); higher = more cells survive
[1] = compound: C1CNCCC1C2=CC(=NN2)C3=CC=NC=C3 + CC(=O)c1c(C)c2cnc(Nc3ccc(N4CCNCC4)cn3)nc2n(C2CCCC2)c1=O [Palbociclib] (partner 0.5 µM)
Summary of the method: (§1)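 Values are medians from duplicate plates. Each reflects relative viability, defined as the nuclei count of treated wells over that of vehicle wells. Lung cancer cell lines in 1536-well plates were pin-tool dosed one day after seeding with one drug alone or with a fixed anchor-drug dose plus five library-drug doses (not always all listed) in √10 steps, then fixed, stained and imaged at 4× after 5 days.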

[2] = compound: C[C@@H](N)c1ccc(C(=O)Nc2ccnc3[nH]ccc23)cc1 + CC(=O)Nc1cccc(-n2c(=O)n(C3CC3)c(=O)c3c(Nc4ccc(I)cc4F)n(C)c(=O)c(C)c32)c1 [Trametinib] (partner 0.02 µM)
Summary of the method: as §1

[3] = compound: C[C@@H](N)c1ccc(C(=O)Nc2ccnc3[nH]ccc23)cc1 + Cc1nc(NC(=O)N2CCC[C@H]2C(N)=O)sc1-c1ccnc(C(C)(C)C(F)(F)F)c1 [Alpelisib] (partner 2 µM)
Summary of the method: as §1

Tanzisertib + Luminespib = compound: O[C@H]1CC[C@H](Nc2ncc3nc(Nc4c(F)cc(F)cc4F)n([C@H]4CCOC4)c3n2)CC1 [Tanzisertib] + CCNC(=O)c1noc(-c2cc(C(C)C)c(O)cc2O)c1-c1ccc(CN2CCOCC2)cc1 [Luminespib] (partner 0.01 µM)
Summary of the method: as §1

Row | Cell Line | relative viability ([1]; first compound 0.08 µM) | relative viability ([1]; first compound 0.8 µM) | relative viability ([1]; first compound 2.53 µM) | relative viability ([1]; first compound 8 µM) | relative viability ([2]; first compound 0.04 µM) | relative viability ([2]; first compound 0.1265 µM) | relative viability ([2]; first compound 0.4 µM) | relative viability ([2]; first compound 1.265 µM) | relative viability ([2]; first compound 4 µM) | relative viability ([3]; first compound 0.04 µM) | relative viability ([3]; first compound 0.1265 µM) | relative viability ([3]; first compound 0.4 µM) | relative viability ([3]; first compound 1.265 µM) | relative viability ([3]; first compound 4 µM) | relative viability (Tanzisertib + Luminespib; first compound 0.08 µM) | relative viability (Tanzisertib + Luminespib; first compound 0.253 µM) | relative viability (Tanzisertib + Luminespib; first compound 0.8 µM) | relative viability (Tanzisertib + Luminespib; first compound 2.53 µM) | relative viability (Tanzisertib + Luminespib; first compound 8 µM)
1 | RERF-LC-KJ | 0.989 | 1.14 | 1.11 | 1.06 | 0.902 | 0.972 | 0.971 | 0.96 | 0.873 | 0.899 | 0.939 | 0.809 | 0.945 | 0.851 | 1.29 | 1.17 | 1.29 | 1.16 | 1.22
2 | NCI-H727 | 0.627 | 0.685 | 0.66 | 0.646 | 0.41 | 0.432 | 0.404 | 0.466 | 0.467 | 0.572 | 0.809 | 0.41 | 0.937 | 0.786 | 0.365 | 0.345 | 0.339 | 0.375 | 0.728
3 | LCLC-97TM1 | 0.206 | 0.295 | 0.251 | 0.194 | 0.211 | 0.193 | 0.227 | 0.259 | 0.18 | 0.242 | 0.239 | 0.343 | 0.373 | 0.48 | 0.956 | 0.669 | 0.803 | 0.824 | 0.788
4 | BEN | 0.447 | 0.47 | 0.45 | 0.433 | 1.01 | 0.87 | 0.984 | 1.37 | 0.85 | 1.07 | 0.995 | 1.09 | 1.25 | 0.731 | 0.352 | 0.77 | 0.814 | 0.382 | 0.209
5 | NCI-H2023 | 0.315 | 0.379 | 0.418 | 0.386 | 0.607 | 0.619 | 0.657 |  | 0.586 | 0.684 | 0.681 | 0.836 | 0.681 | 0.608 | 0.966 | 0.762 | 0.826 | 0.628 | 0.696
6 | LC-2-ad | 0.532 | 0.548 | 0.462 | 0.437 | 0.957 | 0.911 | 0.883 | 0.926 | 0.727 | 0.894 | 0.862 | 0.807 | 0.843 | 0.61 | 1.15 | 1.04 | 1.03 | 1.07 | 1.05
7 | NCI-H647 | 0.354 | 0.387 | 0.49 | 0.458 | 0.387 | 0.47 | 0.46 | 0.424 | 0.385 | 1.32 | 1.08 | 0.962 | 0.96 | 0.928 | 0.152 | 0.12 | 0.196 | 0.158 | 0.336
8 | NCI-H1755 | 0.437 | 0.442 | 0.462 | 0.365 | 0.768 | 0.752 | 0.761 | 0.707 | 0.644 | 0.935 | 0.899 | 0.886 | 0.856 | 0.635 | 0.415 | 0.51 | 0.473 | 0.374 | 0.547
9 | EPLC-272H | 0.343 | 0.359 | 0.326 | 0.334 | 0.299 | 0.283 | 0.358 |  | 0.267 | 1.1 | 0.961 | 1.05 |  | 1.1 | 0.251 | 0.206 | 0.519 | 0.921 | 0.408
10 | NCI-H1437 | 0.356 | 0.335 | 0.352 | 0.368 | 0.647 | 0.572 | 0.681 | 0.601 | 0.638 | 0.899 | 0.935 | 0.945 | 0.934 | 0.764 | 1.18 | 1.14 | 1.04 | 1.27 | 1.21
11 | EKVX | 0.38 |  | 0.412 | 0.395 | 0.482 | 0.446 | 0.396 | 0.556 | 0.22 | 0.897 | 0.95 | 0.887 | 0.895 | 0.748 | 0.974 | 0.882 | 0.801 | 0.833 | 0.825
12 | NCI-H1651 | 0.456 | 0.493 | 0.521 | 0.525 | 0.877 | 0.862 | 0.959 | 0.941 | 0.848 | 1.06 | 0.942 | 1.01 | 1.14 | 1.06 | 0.989 | 0.802 | 0.746 | 0.921 | 0.729
13 | HCC-15 | 0.734 | 0.849 | 0.79 | 0.699 | 0.456 | 0.365 | 0.422 | 0.384 | 0.362 | 0.969 | 0.871 | 0.996 |  | 0.917 | 0.504 | 0.193 | 0.357 | 0.406 | 0.453
14 | LCLC-103H | 0.45 | 0.407 | 0.485 | 0.481 | 0.715 | 0.618 | 0.647 | 0.616 | 0.634 | 1.15 | 0.956 | 1.03 | 0.94 | 0.828 | 1 | 0.888 | 0.941 | 1.05 | 1.12
15 | NCI-H23 | 0.444 |  | 0.602 | 0.647 | 0.422 | 0.427 | 0.386 |  | 0.483 | 0.802 | 0.766 | 0.883 |  | 0.608 | 0.262 | 0.227 | 0.203 | 0.228 | 0.199
16 | NCI-H1792 | 0.636 | 0.702 | 0.718 | 0.588 | 0.5 | 0.465 | 0.597 | 0.698 | 0.324 | 0.733 | 0.648 | 0.745 | 0.691 | 0.62 | 0.413 | 0.402 | 0.447 | 0.448 | 0.344

Source: the supplement of paper PMC10307832
